We go through 23 molecules from US6410592B1, “Aminomethylcarboxylic acid derivatives” (Akzo Nobel N.V., priority 1998, dated 2002).

Counter-ions that a name gives are not always drawn.

Usually melting point stands for the temperature of the solid-liquid transition.

System in the first data set: not given
Experiment: not given
Details: not given
`CN(CC(=O)O)C[C@H]1CCc2cc(OCc3ccccc3)ccc2[C@H]1c1ccccc1.Cl` (relative stereo) registered a melting point of 200 to 210 °C.
The same measure, in the same setting: in the case of `Cc1ccc2c(c1)CCC(CN(C)CC(=O)O)C2c1ccccc1` (racemic) (as salt: salt) [(+/−)-23, Lithium cis-N-methyl-N-(6-methyl-1-phenyl-1,2,3,4-tetrahydronaphthalen-2-ylmethyl) aminomethylcarboxylate] it was 135 to 138 °C; in that of `COC(=O)c1ccc2c(c1)CC[C@H](CN(C)CC(=O)O)[C@@H]2c1ccccc1.Cl` (relative stereo), 166 to 171 °C; in that of `CN(CC(=O)O)CC1CCc2cc(OCC(C)(C)C)ccc2C1c1ccccc1` (single isomer, unassigned; (-)) (as salt: salt) [Example (−)-34, (−)-Lithium cis-N-methyl-N-[1-phenyl-6-(2,2-dimethylpropyloxy)-1,2,3,4-tetrahydronaphthalen-2-ylmethyl] aminomethylcarboxylate], 168 to 170 °C.
Regarding `CN(CC(=O)O)C[C@H]1CCc2cc(OCC3CC3)ccc2[C@H]1c1ccccc1.Cl` (relative stereo), the melting point was 173 to 177 °C.
On the same count and under the same terms, the result for `CN(CC(=O)O)CC1CCc2cc(C(F)(F)F)ccc2C1c1ccc(F)cc1` (single isomer, unassigned; (-)) (as salt: salt) [Example (−)-8, (−)-Lithium N-methyl-N-[1-(4-fluorophenyl)-6-trifluoromethyl-1,2,3,4-tetrahydronaphthalen-2-ylmethyl] aminomethylcarboxylate] reads 161 to 164 °C.
Same read-out and setting: in the case of `CN(CC(=O)O)C[C@H]1CCc2cc(-c3ccccc3)ccc2[C@H]1c1ccccc1.Cl` (relative stereo) it was 210 to 221 °C; in that of `CN(CC(=O)O)C[C@H]1CCc2ccccc2[C@H]1c1ccccc1.Cl` (relative stereo), 205 to 211 °C (dec.); in that of `CN(CC(=O)O)C[C@H]1CCc2cc(OC3CCCCC3)ccc2[C@H]1c1ccccc1.Cl` (relative stereo), > 210 °C (dec.).
On the same count and under the same terms, in the case of `CN(CC(=O)O)CC1CCc2cc(C(F)(F)F)ccc2C1c1ccc(F)cc1` (racemic) (as salt: salt) [(+/−)-8, Lithium cis-N-methyl-N-[1-(4-fluorophenyl)-6-trifluoromethyl-1,2,3,4-tetrahydronaphthalen-2-ylmethyl] aminomethylcarboxylate] it was 137 to 142 °C; in that of `CN(CC(=O)O)CC1CCc2cc(Oc3ccccc3)ccc2C1c1ccccc1` (racemic) (as salt: salt) [(+/−)-17, Lithium cis-N-methyl-N-(6-phenoxy-1-phenyl-1,2,3,4-tetrahydronaphthalen-2-ylmethyl) aminomethylcarboxylate], 191 to 200 °C; in that of `COc1ccc2c(c1)CC[C@H](CN(C)CC(=O)O)[C@@H]2c1cccc(C)c1.O=C(O)C(F)(F)F` (relative stereo), 96 to 106 °C.
Molecule `CN(CC(=O)O)C[C@H]1CCc2cc(OCC(C)(C)C)ccc2[C@H]1c1ccccc1.Cl` (racemic) [(+/−)-34, cis-N-Methyl-N-[6-(2,2-dimethylpropyloxy)-1-phenyl-1,2,3,4-tetrahydronaphthalen-2-ylmethyl] aminomethylcarboxylic acid hydrochloride] returned a melting point of 151 to 155 °C.
On to `CN(CC(=O)O)C[C@H]1CCc2cc(C#N)ccc2[C@H]1c1ccccc1.Cl` (relative stereo), for which the melting point was 197 °C (dec.).

The next data set addresses T1, human GlyT-1b transporter (Homo sapiens, UniProt P48067).
T1 construct: expressed in transfected cells; host or cells: CHO cells, stably transfected, pcDNA3 expression construct
T1 sequence (P48067 1-652 isoform P48067-3): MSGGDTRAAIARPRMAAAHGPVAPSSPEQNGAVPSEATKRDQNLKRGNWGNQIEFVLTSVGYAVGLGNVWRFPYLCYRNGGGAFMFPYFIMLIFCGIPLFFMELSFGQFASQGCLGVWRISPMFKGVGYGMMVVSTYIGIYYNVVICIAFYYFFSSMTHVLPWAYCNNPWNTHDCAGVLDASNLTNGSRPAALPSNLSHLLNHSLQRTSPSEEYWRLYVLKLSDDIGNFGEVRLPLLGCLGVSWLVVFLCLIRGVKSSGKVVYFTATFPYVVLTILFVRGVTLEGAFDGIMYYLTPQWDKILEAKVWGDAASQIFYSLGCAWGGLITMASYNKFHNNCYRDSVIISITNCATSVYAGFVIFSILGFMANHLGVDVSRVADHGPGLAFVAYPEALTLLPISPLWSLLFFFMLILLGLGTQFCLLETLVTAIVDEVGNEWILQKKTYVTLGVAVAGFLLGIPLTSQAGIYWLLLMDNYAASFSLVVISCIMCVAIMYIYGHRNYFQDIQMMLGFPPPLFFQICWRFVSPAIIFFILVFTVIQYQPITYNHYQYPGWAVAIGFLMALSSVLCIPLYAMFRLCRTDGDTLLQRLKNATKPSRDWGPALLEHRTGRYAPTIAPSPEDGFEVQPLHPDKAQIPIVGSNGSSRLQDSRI
The data set is described as follows: glycine uptake in CHO cells heterologously expressing the human GlyT-1b transporter. It is filed as cell-based. The conditions noted are these: [3H]glycine uptake, CHO cells stably expressing hGlyT-1b, 5 min preincubation, 10 min uptake, 37° C. The procedure: Method for determination of glycine uptake in CHO cells heterologously expressing the human GlyT-1b transporter.
cDNA was generated by PCR according to the method described by Kim, K.-M. et al. Mol. Pharmacol. 1994, 45, 608-617. Sequence was verified by dideoxy sequencing using the ALF DNA sequencer™ (Pharmacia) and cloned into the expression construct pcDNA3 (Invitrogen).
Transfection of hGlyT-1b into CHO cells was performed using a standard calcium phosphate technique as described by Sambrook, J. et al. (1989) in Molecular Cloning: A Laboratory Manual, Cold Spring Harbor Laboratory, Cold Spring Harbor, N.Y.
Stably transfected cells were selected for 1 week in growth medium containing 1 mg.cm^−3 Geneticin. Individual clones were picked for further analysis and positives passaged routinely as described below.
Cells stably expressing the hGlyT-1b gene were cultured at 37° C. in a 5% CO2 atmosphere in DMEM—NUT.MIX. F12 with Glutamax-1 (Gibco) containing Geneticin (0.5 mg.cm^−3, Gibco) and supplemented with 10% Fetalclone II (Hyclone). Maintenance culture was carried out in standard 80 cm^2 ventilated flasks (2 m^−6 filter, Nunc) and cells were subcultured by trypsinisation (Sigma) when confluent.
Cells for uptake studies were plated in 96 well plates (17,000 cells per well) in the absence of Geneticin and cultured for 48 h before use. To measure glycine transport, cells were washed twice with Hanks' balanced salt solution (HBSS) pre-warmed to 37° C. and excess fluid removed before addition of test compounds dissolved in 0.200 cm^3 HBSS. Plates were incubated at 37° C. for 5 minutes before addition of [^3H]glycine (0.050 cm^3, 150 M^−6, 248 Bq.nmol^−1, NEN) and incubation continued for a further 10 minutes. Uptake was terminated by washing cells with ice-cold HBSS before removal of excess fluid and addition of 0.200 cm^3 scintillation cocktail to each well. Plates were sealed with adhesive film, shaken to ensure samples were homogenous before scintillation counting in a plate counter.
Data were analysed using standard curve fitting procedures to produce a pIC50 value for active compounds (where pIC50 is the negative logarithm of the concentration of test compound causing 50% inhibition of uptake).
As for `COc1ccc2c(c1)CC[C@H](CN(C)CC(=O)[O-])[C@@H]2c1ccccc1.[Li+]` (relative stereo) [Example (−)-4, (−)-Lithium cis-N-methyl-N-(6-methoxy-1-phenyl-1,2,3,4-tetrahydronaphthalen-2-ylmethyl) aminomethylcarboxylate], the “pIC50, Inhibition of glycine transport by hGlyT-1” value stood at 6.8.

The same data set, now with this note: [3H]glycine uptake, CHO cells stably expressing hGlyT-1b, 5 min preincubation, 10 min uptake, 37° C.; read-out: pIC50, Inhibition of glycine transport by hGlyT-1 (converted).
As for `CN(CC(=O)O)CC1CCc2cc(C(F)(F)F)ccc2C1c1ccc(F)cc1` (racemic) [(+/−)-8, Lithium cis-N-methyl-N-[1-(4-fluorophenyl)-6-trifluoromethyl-1,2,3,4-tetrahydronaphthalen-2-ylmethyl] aminomethylcarboxylate], the IC50 is 126 nM.
Same read-out and setting: the result for `Cc1ccc2c(c1)CCC(CN(C)CC(=O)O)C2c1ccccc1` (racemic) [(+/−)-23, Lithium cis-N-methyl-N-(6-methyl-1-phenyl-1,2,3,4-tetrahydronaphthalen-2-ylmethyl) aminomethylcarboxylate] reads 251 nM.
Same read-out and setting: the result for `CN(CC(=O)O)CC1CCc2cc(Oc3ccccc3)ccc2C1c1ccccc1` (racemic) [(+/−)-17, Lithium cis-N-methyl-N-(6-phenoxy-1-phenyl-1,2,3,4-tetrahydronaphthalen-2-ylmethyl) aminomethylcarboxylate] reads 158 nM; that for `CN(CC(=O)O)CC1CCc2cc(C(F)(F)F)ccc2C1c1ccc(F)cc1` (single isomer, unassigned; (-)) [Example (−)-8, (−)-Lithium N-methyl-N-[1-(4-fluorophenyl)-6-trifluoromethyl-1,2,3,4-tetrahydronaphthalen-2-ylmethyl] aminomethylcarboxylate], 50.1 nM; that for `Cc1ccc2c(c1)CCC(CN(C)CC(=O)O)C2c1ccccc1` (single isomer, unassigned; (-)) [Example (−)-23, (−)-Sodium cis-N-methyl-N-(6-methyl-1-phenyl-1,2,3,4-tetrahydronaphthalen-2-ylmethyl) aminomethylcarboxylate], 126 nM.
The same measure, in the same setting: the result for `CN(CC(=O)O)CC1CCc2cc(Oc3ccccc3)ccc2C1c1ccccc1` (single isomer, unassigned; (-)) [Example (−)-17, (−)-Sodium cis-N-methyl-N-(6-phenoxy-1-phenyl-1,2,3,4-tetrahydronaphthalen-2-ylmethyl) aminomethylcarboxylate] reads 100 nM; that for `CN(CC(=O)O)CC1CCc2cc(OCC(C)(C)C)ccc2C1c1ccccc1` (single isomer, unassigned; (-)) [Example (−)-34, (−)-Lithium cis-N-methyl-N-[1-phenyl-6-(2,2-dimethylpropyloxy)-1,2,3,4-tetrahydronaphthalen-2-ylmethyl] aminomethylcarboxylate], 251 nM.
`CN(CC(=O)O)C[C@H]1CCc2cc(OCC(C)(C)C)ccc2[C@H]1c1ccccc1.Cl` (racemic) [(+/−)-34, cis-N-Methyl-N-[6-(2,2-dimethylpropyloxy)-1-phenyl-1,2,3,4-tetrahydronaphthalen-2-ylmethyl] aminomethylcarboxylic acid hydrochloride]: the IC50 is 251 nM.
For `COc1ccc2c(c1)CCC(CN(C)CC(=O)O)C2c1ccccc1` (racemic) [(+/−)-4, Lithium cis-N-methyl-N-(6-methoxy-1-phenyl-1,2,3,4-tetrahydronaphthalen-2-ylmethyl) aminomethylcarboxylate], the IC50 was 501 nM.
